From patent US11485736B2 (KSQ Therapeutics, Inc., priority 2018, dated 2022)
Where two headings read alike, the source gives them in different places.

Assays:
[1] = ADME solubility determination at pH 2.0 and pH 7.4; assay type: physicochemical; conditions: aqueous buffer, thermodynamic from solid, LC-MS/MS
Outline: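 Dried residues of 10 mM DMSO stocks were shaken in PBS pH 7.4 or pH 2.0 for 24 hours at 25° C. and 1,100 rpm. After centrifugation, supernatants were quantified by LC-MS/MS against a standard of known concentration, applying a dilution factor.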

[2] = Liver microsomal stability, rat liver microsomes; assay type: in vitro ADME; conditions: 1 μM compound, NADPH, read-out: t1/2 (min) in RLM
Outline: (§1)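 Compound (1 μM final) was incubated with prewarmed human or rat liver microsomes (1 mg/mL in 100 mM phosphate master mix) plus NADPH; aliquots at 0.5–30 minutes were quenched in cold acetonitrile and quantified by LC-MS/MS. Half-life came from the ln(% remaining) versus time slope, converted to CLint (μL/min/mg prot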

[3] = Liver microsomal stability, human liver microsomes; assay type: in vitro ADME; conditions: 1 μM compound, NADPH, read-out: t1/2 (min) in HLM
Outline: as §1

[4] = PBS pH 2.0, shaken at 25° C. for 24 hours, read-out: Solubility at pH 2.0
[5] = PBS pH 7.4, shaken at 25° C. for 24 hours, read-out: Solubility at pH 7.4

COc1cccc(OC)c1-c1ncc2cnn(Cc3ccc(-c4nc(C(F)(F)F)cn4C)cc3)c2n1 [Example 4, 6-(2,6-dimethoxyphenyl)-1-(4-(1-methyl-4-(trifluoromethyl)-1H-imidazol-2-yl)benzyl)-1H-pyrazolo[3,4-d]pyrimidine]
solubility at 24 h [1, 4]: > 10 µM
solubility at 24 h [1, 5]: < 10 µM
half-life at 1 μM [2]: < 25 min
half-life at 1 μM [3]: < 25 min

CCn1cc(C(F)(F)F)nc1-c1ccc(Cn2ncc3cnc(-c4c(OC(C)(C)C)ncnc4C4CC4)nc32)cc1 [Example 59]
solubility at 24 h [1, 4]: < 10 µM
solubility at 24 h [1, 5]: < 10 µM
half-life at 1 μM [2]: < 25 min
half-life at 1 μM [3]: < 25 min

CCn1cc(C(F)(F)F)nc1-c1ccc([C@H](C)n2nc(OC)c3cnc(-c4c(OC)ncnc4C4CC4)nc32)cc1 [Example 180]
solubility at 24 h [1, 4]: < 10 µM
solubility at 24 h [1, 5]: < 10 µM
half-life at 1 μM [2]: > 25 min
half-life at 1 μM [3]: > 25 min

Cc1cnn(C(C)C)c1-c1ncc2cnn(Cc3ccc(-n4nc(C(F)(F)F)cc4C)cc3)c2n1 [Example 44]
solubility at 24 h [1, 4]: < 10 µM
solubility at 24 h [1, 5]: < 10 µM
half-life at 1 μM [2]: < 25 min
half-life at 1 μM [3]: < 25 min

CNc1cc(C(F)(F)F)nn1-c1ccc(Cn2ncc3cnc(-c4c(OC)ncnc4C4CC4)nc32)cc1 [Example 120]
solubility at 24 h [1, 4]: < 10 µM
solubility at 24 h [1, 5]: < 10 µM
half-life at 1 μM [2]: < 25 min
half-life at 1 μM [3]: < 25 min

CCn1cc(C(F)(F)F)nc1-c1ccc(Cn2nc(OC)c3cnc(-c4c(OC)ncnc4C4CC4)nc32)cc1F [Example 175, 6-(4-cyclopropyl-6-methoxypyrimidin-5-yl)-1-(4-(1-ethyl-4-(trifluoromethyl)-1H-imidazol-2-yl)-3-fluorobenzyl)-3-methoxy-1H-pyrazolo[3,4-d]pyrimidine]
solubility at 24 h [1, 4]: < 10 µM
solubility at 24 h [1, 5]: < 10 µM
half-life at 1 μM [2]: > 25 min
half-life at 1 μM [3]: > 25 min

CCOc1ncnc(OC)c1-c1ncc2cnn(Cc3ccc(-c4nc(C(F)(F)F)cn4CC)cc3)c2n1 [Example 113]
solubility at 24 h [1, 4]: > 10 µM
solubility at 24 h [1, 5]: > 10 µM
half-life at 1 μM [2]: < 25 min
half-life at 1 μM [3]: > 25 min

COc1ncnc(C2CC2)c1-c1ncc2cnn(Cc3ccc(-c4nc(C(F)(F)F)cn4CCF)cc3)c2n1 [Example 137]
solubility at 24 h [1, 4]: > 10 µM
solubility at 24 h [1, 5]: > 10 µM
half-life at 1 μM [2]: > 25 min
half-life at 1 μM [3]: > 25 min

COc1ncnc(C2CC2)c1-c1ncc2cnn([C@@H](C)c3ccc(-c4nc(C(F)(F)F)cn4C(C)C)cc3)c2n1 [Example 97]
solubility at 24 h [1, 4]: > 10 µM
solubility at 24 h [1, 5]: < 10 µM
half-life at 1 μM [2]: > 25 min
half-life at 1 μM [3]: > 25 min

COc1ncnc(C2CC2)c1-c1ncc2cnn(Cc3ccc(-c4nc(C(F)(F)F)c5n4CCNC5)cc3)c2n1 [Example 136, 6-(4-Cyclopropyl-6-methoxypyrimidin-5-yl)-1-(4-(1-(trifluoromethyl)-5,6,7,8-tetrahydroimidazo[1,5-a]pyrazin-3-yl)benzyl)-1H-pyrazolo[3,4-d]pyrimidine]
solubility at 24 h [1, 4]: > 10 µM
solubility at 24 h [1, 5]: < 10 µM
half-life at 1 μM [2]: < 25 min
half-life at 1 μM [3]: < 25 min

COc1ncnc(C2CC2)c1-c1ncc2cnn(Cc3ccc(-n4nc(C(F)F)cc4C)cc3)c2n1 [Example 50]
solubility at 24 h [1, 4]: < 10 µM
solubility at 24 h [1, 5]: < 10 µM
half-life at 1 μM [2]: > 25 min
half-life at 1 μM [3]: > 25 min

COc1ncnc(C2CC2)c1-c1ncc2cnn(Cc3ccc(-n4nc(C(F)(F)F)cc4OC)nc3)c2n1 [Example 79]
solubility at 24 h [1, 4]: < 10 µM
solubility at 24 h [1, 5]: < 10 µM
half-life at 1 μM [2]: > 25 min
half-life at 1 μM [3]: > 25 min

CSc1ncnc(C)c1-c1ncc2cnn(Cc3ccc(-n4nc(C(F)(F)F)cc4C)cc3)c2n1 [Example 46]
solubility at 24 h [1, 4]: < 10 µM
solubility at 24 h [1, 5]: < 10 µM
half-life at 1 μM [2]: < 25 min
half-life at 1 μM [3]: < 25 min

CCn1cc(C(F)(F)F)nc1-c1ccc(Cn2nc(N3CCC3)c3cnc(-c4c(OC)ncnc4C4CC4)nc32)cc1 [Example 186, 3-(azetidin-1-yl)-6-(4-cyclopropyl-6-methoxypyrimidin-5-yl)-1-(4-(1-ethyl-4-(trifluoromethyl)-1H-imidazol-2-yl)benzyl)-1H-pyrazolo[3,4-d]pyrimidine]
solubility at 24 h [1, 4]: > 10 µM
solubility at 24 h [1, 5]: > 10 µM
half-life at 1 μM [2]: < 25 min
half-life at 1 μM [3]: < 25 min

[2H]C([2H])([2H])C([2H])([2H])n1cc(C(F)(F)F)nc1-c1ccc(Cn2ncc3cnc(-c4c(OC)ncnc4C4CC4)nc32)cc1 [Example 139]
solubility at 24 h [1, 4]: > 10 µM
solubility at 24 h [1, 5]: > 10 µM
half-life at 1 μM [2]: > 25 min
half-life at 1 μM [3]: > 25 min

CCn1cc(C(F)(F)F)nc1-c1ccc(Cn2nc(OC3CCC3)c3cnc(-c4c(OC)ncnc4C4CC4)nc32)cc1 [Example 184]
solubility at 24 h [1, 4]: < 10 µM
solubility at 24 h [1, 5]: < 10 µM
half-life at 1 μM [2]: < 25 min
half-life at 1 μM [3]: < 25 min

COc1ncnc(C2CC2)c1-c1ncc2cnn(Cc3ccc(-c4cn(C)c(C(F)(F)F)n4)cc3)c2n1 [Example 13]
solubility at 24 h [1, 4]: < 10 µM
solubility at 24 h [1, 5]: < 10 µM
half-life at 1 μM [2]: > 25 min
half-life at 1 μM [3]: > 25 min

COc1ncnc(C2CC2)c1-c1ncc2cnn(Cc3ccc(-c4nc(C(F)(F)F)cn4C4CCC4)cc3)c2n1 [Example 144]
solubility at 24 h [1, 4]: < 10 µM
solubility at 24 h [1, 5]: < 10 µM
half-life at 1 μM [2]: < 25 min
half-life at 1 μM [3]: > 25 min

Cc1cc(C(F)(F)F)nn1-c1ccc(Cn2ncc3cnc(-c4cccnc4C(C)C)nc32)cc1 [Example 26]
solubility at 24 h [1, 4]: > 10 µM
solubility at 24 h [1, 5]: < 10 µM
half-life at 1 μM [2]: < 25 min
half-life at 1 μM [3]: > 25 min

CCn1cc(C#N)nc1-c1ccc(Cn2ncc3cnc(-c4c(OC)ncnc4C4CC4)nc32)cc1 [Example 148, 2-(4-((6-(4-cyclopropyl-6-methoxypyrimidin-5-yl)-1H-pyrazolo[3,4-d]pyrimidin-1-yl)methyl)phenyl)-1-ethyl-1H-imidazole-4-carbonitrile]
solubility at 24 h [1, 4]: < 10 µM
solubility at 24 h [1, 5]: < 10 µM
half-life at 1 μM [2]: < 25 min
half-life at 1 μM [3]: < 25 min

CCn1cc(C(F)(F)F)nc1-c1ccc(Cn2ncc3cnc(-c4c(OCCF)ncnc4C4CC4)nc32)cc1 [Example 54]
solubility at 24 h [1, 4]: < 10 µM
solubility at 24 h [1, 5]: < 10 µM
half-life at 1 μM [2]: < 25 min
half-life at 1 μM [3]: < 25 min

COc1ncnc(C2CC2)c1-c1ncc2cnn([C@@H]3CCc4cc(-c5nc(C(F)(F)F)cn5C(C)C)ccc43)c2n1 [Example 174]
solubility at 24 h [1, 4]: < 10 µM
solubility at 24 h [1, 5]: < 10 µM
half-life at 1 μM [2]: > 25 min
half-life at 1 μM [3]: > 25 min

CCn1cc(C(F)(F)F)nc1-c1ccc(Cn2ncc3cnc(-c4c(OC)ncnc4C4CC4)nc32)cc1 [Example 51]
solubility at 24 h [1, 4]: > 10 µM
solubility at 24 h [1, 5]: < 10 µM
half-life at 1 μM [2]: > 25 min
half-life at 1 μM [3]: > 25 min

COCCOc1ncnc(C)c1-c1ncc2cnn(Cc3ccc(-n4nc(C(F)(F)F)cc4C)cc3)c2n1 [Example 47]
solubility at 24 h [1, 4]: > 10 µM
solubility at 24 h [1, 5]: > 10 µM
half-life at 1 μM [2]: < 25 min
half-life at 1 μM [3]: < 25 min

COc1ncnc(C2CC2)c1-c1ncc2cnn(Cc3ccc(-c4nc(C(F)(F)F)sc4C)cc3)c2n1 [Example 125]
solubility at 24 h [1, 4]: < 10 µM
solubility at 24 h [1, 5]: < 10 µM
half-life at 1 μM [2]: > 25 min
half-life at 1 μM [3]: > 25 min

COc1ncnc(C2CC2)c1-c1ncc2c(OC)nn(C(C)c3ccc(-c4nc(C(F)(F)F)cn4CCF)cc3)c2n1 (stereo not shown) [Example 177]
solubility at 24 h [1, 4]: < 10 µM
solubility at 24 h [1, 5]: < 10 µM
half-life at 1 μM [2]: > 25 min
half-life at 1 μM [3]: > 25 min

Cn1cc(C(F)(F)F)nc1-c1ccc(Cn2ncc3cnc(-c4ccccc4S(C)(=O)=O)nc32)cc1 [Example 3, 1-(4-(1-methyl-4-(trifluoromethyl)-1H-imidazol-2-yl)benzyl)-6-(2-(methylsulfonyl)-phenyl)-1H-pyrazolo[3,4-d]pyrimidine]
solubility at 24 h [1, 4]: > 10 µM
solubility at 24 h [1, 5]: < 10 µM
half-life at 1 μM [2]: > 25 min
half-life at 1 μM [3]: > 25 min

COc1ncnc(C2CC2)c1-c1ncc2cnn(Cc3ccc(-n4nc(C(F)(F)F)cc4OCCO)cc3)c2n1 [Example 78]
solubility at 24 h [1, 4]: < 10 µM
solubility at 24 h [1, 5]: < 10 µM
half-life at 1 μM [2]: > 25 min
half-life at 1 μM [3]: > 25 min

COc1ncnc(C2CC2)c1-c1ncc2cnn(Cc3ccc(-c4nc(C(F)(F)F)c(OC)n4C(C)C)cc3)c2n1 [Example 166]
solubility at 24 h [1, 4]: < 10 µM
solubility at 24 h [1, 5]: < 10 µM
half-life at 1 μM [2]: < 25 min
half-life at 1 μM [3]: < 25 min

COc1ncnc(OC)c1-c1ncc2cnn(Cc3ccc(-c4nc(C(F)(F)F)cn4C(C)C)cc3)c2n1 [Example 90]
solubility at 24 h [1, 4]: > 10 µM
solubility at 24 h [1, 5]: > 10 µM
half-life at 1 μM [2]: > 25 min
half-life at 1 μM [3]: > 25 min

COc1ncnc(C2CC2)c1-c1ncc2nc(C3CCC3)n(Cc3ccc(-n4nc(C(F)(F)F)cc4C)cc3)c2n1 [Example 214]
solubility at 24 h [1, 4]: < 10 µM
solubility at 24 h [1, 5]: < 10 µM
half-life at 1 μM [2]: > 25 min
half-life at 1 μM [3]: > 25 min

COc1ncnc(C(C)C)c1-c1ncc2cnn(Cc3ccc(-c4nc(C(F)(F)F)cn4C(C)C)cc3)c2n1 [Example 119]
solubility at 24 h [1, 4]: < 10 µM
solubility at 24 h [1, 5]: > 10 µM
half-life at 1 μM [2]: > 25 min
half-life at 1 μM [3]: > 25 min

COc1ncnc(C)c1-c1ncc2cnn(Cc3ccc(-n4nc(C(F)(F)F)cc4C)cc3)c2n1 [Example 48]
solubility at 24 h [1, 4]: > 10 µM
solubility at 24 h [1, 5]: < 10 µM
half-life at 1 μM [2]: > 25 min
half-life at 1 μM [3]: > 25 min

COc1ncnc(C2CCC2)c1-c1ncc2cnn(Cc3ccc(-c4nc(C(F)(F)F)cn4C(C)C)cc3)c2n1 [Example 16]
solubility at 24 h [1, 4]: > 10 µM
solubility at 24 h [1, 5]: < 10 µM
half-life at 1 μM [2]: < 25 min
half-life at 1 μM [3]: < 25 min
